Assay results reported in US9926326B2, “Substituted thioxanthenone autophagy inhibitors” (THE CLEVELAND CLINIC FOUNDATION, priority 2014, dated 2018).

Experiments:
[1] = tested on: IGROV-1; test: 72 h MTT assay, IGROV-1; type: cell-based; conditions: Homo sapiens, IGROV-1, Ovarian
Procedure: (§1) Quantification of drug-induced cytotoxicity. Cell viability was assessed by MIT assay. Cells were seeded into 96-well microculture plates at […] per well and allowed to attach for 24 h. Cells were then treated with ROC-325 or HCQ for 72 h. Following drug treatment, MTT was added and cell viability was quantified using a BioTek (Winooski, Vt.) microplate reader. Pro-apoptotic effects following in vitro drug exposure were quantified by propidium iodide (PI) staining and fluorescence-activated cell sorting (FACS) analysis of sub-G0/G1 DNA content as previously described and by measurement of active caspase-3 by flow cytometry using a commercial kit (BD Biosciences, San Jose, Calif.). Mahalingam et al., Clin Cancer Res 2010; 16:141-53.

[2] = tested on: NCI-H69; test: 72 h MTT assay, NCI-H69; type: cell-based; conditions: Homo sapiens, NCI-H69, Lung
Procedure: as §1

[3] = tested on: UACC-62; test: 72 h MTT assay, UACC-62; type: cell-based; conditions: Homo sapiens, UACC-62, Melanoma
Procedure: as §1

[4] = tested on: RL; test: 72 h MTT assay, RL; type: cell-based; conditions: Homo sapiens, NHL
Procedure: as §1

[5] = tested on: A498; test: 72 h MTT assay, A498; type: cell-based; conditions: Homo sapiens, A498, Renal
Procedure: (§2) Cells and cell culture. A498, 786-0, Achn and Caki-2 cells were obtained from ATCC (Manassas. Va.). Cells were cultured with medium supplemented with 10% FBS at 37° C. with 5% CO2 as previously described. Swords et al., Blood 2010; 115:3796.800. Human normal renal proximal tubule epithelial cells (RPTEC) were purchased from Clonetics (Walkersville, Md.) and cultured in REGM media (REGM BulletKit, Clonetics). Cell lines were authenticated by the source banks using DNA profiling techniques and were used for this study in accordance with AACR guidelines.
as §1

[6] = tested on: MiaPaCa-2; test: 72 h MTT assay, MiaPaCa-2; type: cell-based; conditions: Homo sapiens, MIA PaCa-2, MiaPaCa-2, Pancreas
Procedure: as §1

[7] = tested on: A549; test: 72 h MTT assay, A549; type: cell-based; conditions: Homo sapiens, A549, Lung
Procedure: as §1

[8] = tested on: DLD-1; test: 72 h MTT assay, DLD-1; type: cell-based; conditions: Homo sapiens, DLD-1, Colon
Procedure: as §1

[9] = tested on: CFPAC-1; test: 72 h MTT assay, CFPAC-1; type: cell-based; conditions: Homo sapiens, CFPAC-1, Pancreas
Procedure: as §1

[10] = tested on: PC-3; test: 72 h MTT assay, PC-3; type: cell-based; conditions: Homo sapiens, PC-3, Prostate
Procedure: as §1

[11] = tested on: MCF-7; test: 72 h MTT assay, MCF-7; type: cell-based; conditions: Homo sapiens, MCF7, MCF-7, Breast
Procedure: as §1

[12] = tested on: COLO-205; test: 72 h MTT assay, COLO-205; type: cell-based; conditions: Homo sapiens, COLO-205, Colon
Procedure: as §1

[13] = Carew et al., J Biol Chem 2011; cited from earlier work
[14] = tested on: RCC cell lines (786-0, A498, Achn, and Caki-2); test: MTT cell viability in RCC cell lines; type: cell-based, human; conditions: 72 hours
Procedure: as §2, §1

[15] = tested on: 786-0 RCC xenografts; test: In vivo evaluation in 786-O RCC xenografts; set-up: species or system nude mice
Procedure: In vivo evaluation of ROC-325 and HCQ. 786-O renal cancer cells (5×106) were suspended in a mixture of HBSS and Matrigel and subcutaneously implanted into female nude mice (BALB/c background). Tumor-bearing animals from each cell line xenograft were randomized into treatment groups. Mice were treated with vehicle (water), ROC-325 (25, 40, and 50 mg/kg PO), or HCQ (60 mg/kg IP) QD×5 for 6 weeks. Mice were monitored daily and tumor volumes were measured twice weekly. At study completion, tumors from representative animals were excised from each group, […], and paraffin-embedded for immunohistochemical analysis.
Immunohistochemistry. Paraffin-embedded tumor sections were deparaffinized in xylene, exposed to a graded series of alcohol, and rehydrated in PBS (pH 7.5). Heat-induced epitope retrieval on paraffin-embedded sections and probing with specific antibodies was conducted as previously described. Nawrocki et al., Clin Cancer Res 2013; 19:3577-90. Positive reactions were visualized using 3,3′-diaminobenzidine (Dako, Glostrup, Denmark). Images were captured using an Olympus fluorescent microscope (Center Valley. Pa.) with a DP71 camera and a 20× objective. Image-Pro Plus software Version 6.2.1 (MediaCybernetics, Bethesda, Md.) was used for image acquisition. ImageJ software was used for quantification of LC3B and p62 levels by densitometric analysis of five random fields containing viable tumor cells. Quantification of cleaved caspase-3 was conducted by counting the number of positive cells in five random fields as previously described. Carew et al., Cancer Res 2008; 68:4783-90.

[16] = tested on: LC3B, p62, cathepsin D; test: Immunoblotting of autophagy markers and autophagic flux with bafilomycin A1; type: cell-based, human
Procedure: Immunoblotting. Renal cancer cells were incubated with ROC-325 for 24 h. Cells were harvested and were then lysed as previously described. Nawrocki S T, Carew J S, Maclean K H, Courage J F, Huang P, Houghton J A, Cleveland J L, Giles F J, McConkey D J. Myc regulates aggresome formation, the induction of Noxa, and apoptosis in response to the combination of bortezomib and SAHA. Blood 2008; 112:2917-26. Approximately 50 μg of total cellular protein from each sample were subjected to SDS-PAGE, proteins were transferred to nitrocellulose membranes, and the membranes were blocked with 5% nonfat milk in a Tris-buffered saline solution containing 0.1% Tween-20 for 1 h. The blots were then probed overnight at 4° C. with primary antibodies, washed, and probed with species-specific secondary antibodies coupled to horseradish peroxidase. Immunoreactive material was detected by enhanced chemiluminescence (West Pico, Pierce, Inc., […]. Ill.).

[17] = tested on: 12 different human cancer cell lines; test: Direct comparison of in vitro anticancer effects in 12 cancer cell lines (MTT); type: cell-based; conditions: all 12 models tested, 72 h MTT
Procedure: as §1

[18] = tested on: cathepsin D (CTSD); test: Cathepsin D expression, microarray and qRT-PCR; type: cell-based, human; conditions: A498 and 786-0, 5 μM, 24 hours; confirmed by qRT-PCR
Procedure: Expression microarrays. RCC cells were treated with […] for 24 h. Total RNAs were isolated using the RNeasy Plus Mini Kit (Qiagen, Germantown, Md.) and treated with TURBO DNA-Free™ Kit (Applied Biosystems, Foster City, Calif.), 300 ng of total RNA per sample was amplified and hybridized to GeneChip® Human Gene 1.0 ST arrays (Affymetrix, Inc., Santa Clara, Calif.) according to the manufacturer's instructions. Affymetrix CEL files were imported into Partek® Genomics Suite™ 6.4 (Partek Inc., St. Louis. Mo.) using the default Partek normalization parameters and the robust multi-array average (RMA) analysis adjusted for probe sequence and GC content (GC-RMA). Data normalization was performed across all arrays using quantile normalization.
Quantitative real time polymerase chain reaction, cDNA from ROC-325 treated cells were used for relative quantification by RT-PCR analyses. First-strand cDNA synthesis was performed from 1 μg RNA in a 20 μl reaction mixture using the high-capacity eDNA Reverse Transcription Kit (Applied Biosystems, Foster City, Calif.). Cathepsin D (CTSD) and GAPDH transcripts were amplified using commercially available TaqMan® Gene expression assays (Applied Biosystems, Foster City, Calif.). Relative gene expression was calculated with the 2-Ct method using GAPDH as a housekeeping gene. Pfaffl M W., Nucleic Acids Res 2001; 29:e45.

[19] = tested on: LC3B; test: LC3B immunocytochemistry; type: cell-based, human; conditions: 5 μM, 24 hours, A498 and 786-0
Procedure: Immunocytochemistry. Cells were plated on chamber slides and allowed to attach overnight. Cells were then treated for 24 h with ROC-325. Following drug treatment, cells were fixed with 4% paraformaldehyde, permeabilized using 0.2% triton-X-100, and incubated overnight with anti-LC3B antibody. Alexa Fluor 594 conjugated fluorescent secondary antibody was used to visualize protein localization. Dapi was utilized to stain the nucleus. Images were captured using an Olympus fluorescent microscope (Center Valley, Pa.) with a DP71 camera and a 60× objective. Image-Pro Plus software Version 6.2.1 (MediaCybernetics, Bethesda, Md.) was used for image acquisition.

[20] = tested on: normal renal proximal tubule endothelial cells (RPTEC); test: MTT cell viability in normal renal cells; type: cell-based, human; conditions: 72 hours
Procedure: as §2, §1

[21] = tested on: 786-O and A498 cells; test: Acridine orange staining of acidic lysosomes; type: cell-based, human; conditions: 24 h
Procedure: Acridine orange staining. Acidic lysosomes were visualized by acridine orange staining as previously described. Carew et al., J Biol Chem 2011; 286:6602-13. After treatment with ROC-325 for 24 h, cells were stained with 1 μM acridine orange for 15 minutes at 37° C. Cells were washed with PBS and images were captured using an Olympus fluorescent microscope. Acidic lysosomes appear as orange fluorescent cytoplasmic vesicles. Quantification of 5 random fields of acridine orange intensity and image acquisition were performed using Image-Pro Plus software Version 6.2.1.

[22] = tested on: RCC cells; test: Transmission electron microscopy; type: cell-based, human; conditions: 5 μM, 24 h
Procedure: Transmission electron microscopy. Transmission electron microscopy of cells was performed as previously described. Carew et al., J Cell Mol Med 2010 Oct.; 14(10):2448-59. RCC cells were treated with ROC-325 for 24 h and harvested for imaging. Briefly, sections were cut in an LKB Ultracut microtome (Leica. Deerfield, Ill.), stained with uranyl acetate and lead citrate, and examined in a JEM 1230 transmission electron microscope (JEOL, USA, Inc., Peabody, Mass.). Images were captured using the AMT Imaging System (Advanced Microscopy Techniques Corp, Danvers. Mass.).

[23] = tested on: RCC cells; test: Apoptosis: active caspase-3 flow cytometry and PI-FACS DNA fragmentation; type: cell-based, human; conditions: 48 hours
Procedure: as §1

[24] = tested on: A498 and 786-O cells; test: Giemsa staining, vacuolization; type: cell-based, human; conditions: 5 μM, 24 h
Procedure: Giemsa staining. Cells were plated in chamber slides as previously described and treated with ROC-325 for 24 h. Carew et al., J Biol Chem 2011; 286:6602-13. Following drug treatment, cells were washed with PBS and fixed in methanol for 5 minutes. Cells were then incubated for 1 h in Giemsa stain diluted 1:20 with deionized water. Cells were rinsed with water and imaged using an Olympus fluorescent microscope. Image-Pro Plus software Version 6.2.1 was used for image acquisition.

SMILES	IC50 [1]	IC50 [2]	IC50 [3]	IC50 [4]	IC50 [5]	IC50 [6]	IC50 [7]	IC50 [8]	IC50 [9]	IC50 [10]	IC50 [11]	IC50 [12]	also measured
CCN(CCO)CCCC(C)Nc1ccnc2cc(Cl)ccc12 (stereo not drawn) [HCQ, hydroxychloroquine, reference compound]	> 75 µM	54 µM	> 75 µM	35 µM	52 µM	> 75 µM	> 75 µM	> 75 µM	> 75 µM	58 µM	> 75 µM	51 µM	
CCN(CC)CCNc1ccc(C)c2sc3ccccc3c(=O)c12 [LUC, lucanthone]													anticancer activity compared to CQ [13]: approximately 10 ×
Cc1ccc(NCCN(C)CCNc2ccnc3cc(Cl)ccc23)c2c(=O)c3ccccc3sc12 [ROC-325]	11 µM	5 µM	6 µM	8.4 µM	4.9 µM	5.8 µM	11 µM	7.4 µM	4.6 µM	11 µM	8.2 µM	5.4 µM	more effective at diminishing RCC cell viability than HCQ [14]: approximately 10 fold; tolerability ([15]; 25, 40, or 50 mg/kg PO, nude mice): well tolerated; disease progression (tumor volume) ([15]; 25, 40, or 50 mg/kg QD PO, 786-0 xenografts in nude mice): significant, dose-dependent inhibition of disease progression; LC3B in tumors (immunohistochemistry) ([15]; 786-0 xenograft specimens): significant, dose-dependent increases; apoptosis in tumors (cleaved caspase-3 immunohistochemistry) ([15]; 786-0 xenograft specimens): increased apoptosis; p62 in tumors (immunohistochemistry) ([15]; 786-0 xenograft specimens): significant, dose-dependent increases; mean body weight ([15]; highest dose, end of study (Day 46)): very modest, non-significant reduction; oral bioavailability ([15]; mice, PO): orally bioavailable; autophagic flux ([16]; 786-0, alone and combined with bafilomycin A1): effectively inhibited autophagic flux; LC3B expression (immunoblotting) ([16]; A498 and 786-0, 24 h): dose-dependent increase; levels of p62 and cathepsin D (immunoblotting) ([16]; A498 and 786-0, 24 h): corresponding increase; lower IC50s than HCQ [17]: approximately 10 fold; CTSD levels [18]: highly significant increase; LC3B distribution and levels [19]: formation of LC3B punctae and a robust increase in LC3B levels; cell viability of normal renal cells [20]: marginal reduction in cell viability; acridine orange fluorescence (lysosomal membrane permeability) [21]: significant loss of acridine orange fluorescence; autophagosomes [22]: promoted the accumulation of autophagosomes; percentages of cells with active caspase-3 expression [23]: dose-dependent increases; percentages of cells with fragmented DNA ([23]; PI-FACS): dose-dependent increases; cytosolic vacuolization [24]: induced cytosolic vacuolization
